Measured values taken from patent publication US7238813B2, “Chemical compounds” (Smithkline Beecham Corporation, priority 2000, dated 2007).

How the values were obtained:
GST-VEGFR2 = target: T1, GST-VEGFR2 (Homo sapiens, UniProt P35968); test: VEGF-R2 enzyme assay (VEGF-E), LANCE method; type: biochemical; conditions: 75 μM ATP
T1 construct: GST-VEGFR2, baculovirus expressed recombinant constructs of the intracellular domains of human TIE2 tagged by GST; made in house

[1] = target: T2, GST-TIE2 (intracellular domains of human TIE2) (Homo sapiens, UniProt Q02763); test: TIE-2 enzyme assay (TIE2-E), LANCE method; type: biochemical; conditions: 80 uM ATP
T2 construct: made in house
Method in brief: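 Baculovirus GST-TIE2 (human intracellular domain, aa 762–1104) preactivated 30 min at RT with 2 mM ATP, then reacted 30 min at RT with 1 μM D1-15 peptide, 80 uM ATP, 10 mM MgCl2, pH 7.4, 2.4% DMSO. EDTA-stopped; LANCE Eu-anti-pTyr/streptavidin-APC read-out. IC50 by nonlinear regression, reported as pIC50.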

[2] = target: T3, TIE2 intracellular domain/c-fms extracellular domain (TIE2/c-fms) chimeric protein expressing mouse 3T3 cells (Homo sapiens, UniProt Q02763); test: TIE-2 autophosphorylation assay (TIE2-C), ELISA; type: cell-based; conditions: TIE2/c-fms 3T3 cells, MCSF activation
T3 construct: a TIE2 intracellular domain/c-fms extracellular domain (TIE2/c-fms) chimeric protein; expressed in transfected cells; host or cells: mouse 3T3 cells
Method in brief: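 Mouse 3T3 cells expressing TIE2 intracellular/c-fms extracellular chimera treated with compound for 1 hr in serum-free DMEM (0.1% DMSO), then stimulated with MCSF. Lysates captured on anti-c-fms plates overnight at 4 °C; phosphotyrosine detected by biotin-PT66/HRP-streptavidin, OD450. IC50 by nonlinear regression, reported as pIC50.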

[3] = system: Human umbilical cord endothelial cells (HUVEC); test: VEGF-driven cellular proliferation assay: BrdU incorporation assay (VEGF-C); type: cell-based; design: key to VEGF-C: + = pIC50 of 5.0–6.0; ++ = pIC50 of 6.0–7.0; +++ = pIC50 of > 7.0; − = a negative or inconclusive result; conditions: for IC50: Homo sapiens
Method: VFGF-driven Cellular Proliferation Assay: BrdU Incorporation Assay (VEGF-C)
Human umbilical cord endothelial cells (HUVEC, Clonetics, CC2519) were passaged in Type I collagen-coated 100-mm petridishes in EGM-MV medium (Clonetics, CC3125) at 37° C. in a humidified 5% CO2, 95% air incubator. (HUVEC passaged more than 6 times in vitro were discarded and not subjected to assaying.) The cells were harvested using trypsin/EDTA, counted using a haemocytometer and plated at 5000 cells/well in a Type I-collagen coated 96-well plate (Becton Dickinson, 354407) in M199 medium (Gibco BRL, 12340-030) containing 5% FBS (Hyclone, A 1115-L) and gentamicin (at 50 μg/ml, Gibco BRL). After incubation overnight at 37° C., the media were replaced with 100 μl of M199 serum-free medium containing compounds at various concentrations with 0.6% DMSO and gentamicin. The compounds were diluted in serum-free M199 medium from 10 mM stock solutions prepared in 100% DMSO. After a 30 min incubation at 37° C., the cells were fed with 100 μl of serum-free M199 medium containing gentamicin, 0.2% culture-grade bovine serum albumin (BSA, Sigma A1993) and 20 ng/ml of VEGF (R&D systems, 293-VE) or 0.6 ng/ml of basic FGF (R&D systems, 233-FB), and cultured at 37° C. for another 24 h. The cells were pulsed with bromodeoxyuridine (BrdU at 10 μM in serum-free M199) at 37° C. for an additional 24 h. The incorporation of BrdU into the proliferating HUVEC were analyzed using BrdU Cell Proliferation ELISA (Roche Molecular Biochemicals, 1647229) according to the manufacturer's protocols. The optical density at 450 nm was measured with a multilabel counter (ARVO SX, Wallac). The percent inhibition of cell growth was calculated relative to blank control wells. The concentration of test compound that inhibits 50% of cell growth (IC50) was interpolated using nonlinear regression (Levernberg-Marquardt) and the equation, y=Vmax (1−x/(K+x))+Y2, where “K” was equal to the IC50. The IC50, values were converted to pIC50 values, i.e., −log IC50 in Molar concentration.

T1 sequence (P35968 786-1356 limits assumed): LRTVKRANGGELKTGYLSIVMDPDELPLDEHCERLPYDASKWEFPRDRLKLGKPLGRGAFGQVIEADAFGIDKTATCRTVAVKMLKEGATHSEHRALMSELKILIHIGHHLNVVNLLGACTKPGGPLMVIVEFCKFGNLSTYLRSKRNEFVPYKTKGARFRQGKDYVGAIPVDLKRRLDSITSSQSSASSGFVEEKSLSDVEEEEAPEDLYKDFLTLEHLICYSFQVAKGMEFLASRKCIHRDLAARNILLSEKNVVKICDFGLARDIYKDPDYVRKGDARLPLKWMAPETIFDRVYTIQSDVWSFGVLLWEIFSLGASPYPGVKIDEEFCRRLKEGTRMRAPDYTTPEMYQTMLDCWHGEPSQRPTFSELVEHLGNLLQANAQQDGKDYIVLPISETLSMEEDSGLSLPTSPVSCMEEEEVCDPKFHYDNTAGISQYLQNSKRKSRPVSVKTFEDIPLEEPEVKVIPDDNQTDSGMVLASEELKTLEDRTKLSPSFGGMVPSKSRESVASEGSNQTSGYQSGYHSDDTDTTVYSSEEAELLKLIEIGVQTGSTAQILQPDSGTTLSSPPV
T3 sequence (Q02763 770-1124 limits assumed, change not shown): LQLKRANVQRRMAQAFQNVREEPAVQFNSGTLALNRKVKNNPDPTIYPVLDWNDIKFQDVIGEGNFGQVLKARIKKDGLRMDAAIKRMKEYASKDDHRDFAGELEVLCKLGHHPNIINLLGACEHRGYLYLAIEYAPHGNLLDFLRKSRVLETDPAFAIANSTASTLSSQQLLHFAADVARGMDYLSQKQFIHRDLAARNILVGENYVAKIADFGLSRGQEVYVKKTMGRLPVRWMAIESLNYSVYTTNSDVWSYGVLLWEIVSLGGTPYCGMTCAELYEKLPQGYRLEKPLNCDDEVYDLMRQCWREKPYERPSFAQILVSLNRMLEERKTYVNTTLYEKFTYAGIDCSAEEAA
T2 sequence (Q02763 762-1104): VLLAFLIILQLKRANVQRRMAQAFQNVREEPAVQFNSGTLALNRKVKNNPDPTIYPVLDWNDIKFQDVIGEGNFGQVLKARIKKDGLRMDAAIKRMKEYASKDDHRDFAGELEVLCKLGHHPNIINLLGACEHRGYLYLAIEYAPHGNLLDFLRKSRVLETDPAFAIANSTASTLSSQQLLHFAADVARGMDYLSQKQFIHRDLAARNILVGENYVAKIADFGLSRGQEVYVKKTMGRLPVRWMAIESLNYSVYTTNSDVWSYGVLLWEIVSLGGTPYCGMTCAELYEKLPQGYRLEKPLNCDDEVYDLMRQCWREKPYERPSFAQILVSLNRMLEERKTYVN

SMILES | IC50 (GST-VEGFR2) | IC50 [1] | IC50 [2] | IC50 [3] | VEGF-C [3]
CC(=O)NCC(=O)Nc1nc2cc(Oc3ccc(NC(=O)Nc4cc(C(F)(F)F)ccc4F)cc3)ccc2[nH]1 [Example 29, N-(5-(4-((2-Fluoro-5-(trifluoromethyl)phenyl)aminocarbonylamino)phenoxy)-1H-benzimidazol-2-yl)-2-(N-acetylamino)acetamide] | < 100 nM | < 100 nM | < 100 nM | 100 to 1000 nM | 
O=C(Nc1ccc(Oc2ccc3[nH]c(NC(=O)c4ccc(-n5ccnc5)cc4)nc3c2)cc1)Nc1cc(C(F)(F)F)ccc1F [Example 91, N-(5-(4-((2-Fluoro-5-(trifluoromethyl)phenyl)aminocarbonylamino)phenoxy)-1H-benzimidazol-2-yl)-4-(1H-imidazol-1-yl)benzamide] | < 100 nM | < 100 nM | < 100 nM |  | −
COC(=O)Nc1nc2cc(Oc3ccc(NC(=O)Nc4cc(F)ccc4F)cc3)ccc2[nH]1 [Example 56, Methyl N-(5-(4-((2,5-difluorophenyl)aminocarbonylamino)phenoxy)-1H-benzimidazol-2-yl)carbamate] | < 100 nM | 100 to 1000 nM | < 100 nM |  | −
COC(=O)Nc1nc2cc(S(=O)(=O)c3ccc(NC(=O)Nc4cc(C(F)(F)F)ccc4F)cc3)ccc2[nH]1 [Example 12, Methyl N-(5-(4-((2-fluoro-5-(trifluoromethyl)phenyl)aminocarbonylamino)phenylsulfonyl)-1H-benzimidazol-2-yl)carbamate] | 1000 to 10000 nM | 100 to 1000 nM | < 100 nM |  | −
COC(=O)Nc1nc2cc(Oc3ccc(NC(=O)Nc4cc(C(F)(F)F)ccc4Cl)cn3)ccc2[nH]1 [Example 111, Methyl-N-(5-(5-((2-chloro-5-(trifluoromethyl)phenyl)aminocarbonylamino)-2-pyridyloxy)-1H-benzimidazol-2-yl)carbamate] | < 100 nM | < 100 nM | < 100 nM |  | −
COC(=O)Nc1cn2cc(Oc3ccc(NC(=O)Nc4cc(C(F)(F)F)ccc4F)cc3)ccc2n1 [Example 68, Methyl N-(5-(4-((2-fluoro-5-(trifluoromethyl)phenyl)aminocarbonylamino)phenoxy)-3a-aza-2-indolyl)carbamate] | < 100 nM | < 100 nM | < 100 nM | < 100 nM | 
CCOC(=O)Nc1nc2cc(Oc3ccc(NC(=O)Nc4cc(C(F)(F)F)ccc4F)cc3)ccc2[nH]1 [Example 17, Ethyl N-(5-(4-((2-fluoro-5-(trifluoromethyl)phenyl)aminocarbonylamino)phenoxy)-1H-benzimidazol-2-yl)carbamate] | < 100 nM | < 100 nM | < 100 nM | < 100 nM | 
CN(C)CC(=O)Nc1nc2cc(Oc3ccc(NC(=O)Nc4cc(C(F)(F)F)ccc4F)cc3)ccc2[nH]1 [Example 102] | < 100 nM | < 100 nM | < 100 nM | < 100 nM | 
COC(=O)Nc1nc2cc(Oc3ccc(NC(=O)Nc4cccc(C#N)c4)cc3)ccc2[nH]1 [Example 49] | < 100 nM | 100 to 1000 nM | 100 to 1000 nM |  | −
COC(=O)Nc1nc2cc(Oc3ccc(NC(=O)Nc4cc(Cl)ccc4Cl)cc3)ccc2[nH]1 [Example 45, Methyl N-(5-(4-((2,5-dichlorophenyl)aminocarbonylamino)phenoxy)-1H-benzimidazol-2-yl)carbamate] | < 100 nM | < 100 nM | < 100 nM |  | −
COC(=O)Nc1nc2cc(Oc3cccc(NC(=O)Nc4cc(C(F)(F)F)ccc4F)c3)ccc2[nH]1 [Example 15, Methyl N-(5-(3-((2-Fluoro-5-(trifluoromethyl)phenyl)aminocarbonylamino)phenoxy)-1H-benzimidazol-2-yl)carbamate] | < 100 nM | < 100 nM | < 100 nM | 100 to 1000 nM | 
COC(=O)Nc1nc2cc(Oc3ccc(NC(=O)Nc4cc(C(F)(F)F)ccc4F)cn3)ccc2[nH]1 [Example 37, Methyl N-(5-(5-((2-fluoro-5-(trifluoromethyl)phenyl)aminocarbonylamino)-2-pyridyloxy)-1H-benzimidazol-2-yl)carbamate] | < 100 nM | < 100 nM | < 100 nM |  | −
COC(=O)Nc1nc2cc(Oc3ccc(NC(=O)Nc4cccc(Cl)c4)cc3)ccc2[nH]1 [Example 1, Methyl N-(5-(4-((3-chlorophenyl)aminocarbonylamino)phenoxy)-1H-benzimidazol-2-yl)carbamate] | < 100 nM | < 100 nM | 100 to 1000 nM |  | −
CN(C)CCCC(=O)Nc1nc2cc(Oc3ccc(NC(=O)Nc4cc(C(F)(F)F)ccc4F)cc3)ccc2[nH]1 [Example 92, N-(5-(4-((2-Fluoro-5-(trifluoromethyl)phenyl)aminocarbonylamino)phenoxy)-1H-benzimidazol-2-yl)-4-(dimethylamino)butylamide] | < 100 nM | < 100 nM | < 100 nM | < 100 nM | 
CN1CCN(Cc2ccc(C(=O)Nc3nc4cc(Oc5ccc(NC(=O)Nc6cc(C(F)(F)F)ccc6F)cc5)ccc4[nH]3)cc2)CC1 [Example 87, N-(5-(4-((2-Fluoro-5-(trifluoromethyl)phenyl)aminocarbonylamino)phenoxy)-1H-benzimidazol-2-yl)-4-(4-methyl-1-piperazinomethyl)benzamide] | < 100 nM | < 100 nM | < 100 nM | 100 to 1000 nM | 
COC(=O)Nc1nc2cc(Oc3ccc(NC(=O)Nc4cccc(C(F)(F)F)c4)cc3)ccc2[nH]1 [Example 19, Methyl N-(5-(4-((3-(trifluoromethyl)phenyl)aminocarbonylamino)phenoxy)-1H-benzimidazol-2-yl)carbamate] | < 100 nM | < 100 nM | < 100 nM |  | −
COC(=O)Nc1nc2cc(Oc3ccc(NC(=O)Nc4cccc(C(F)(F)F)c4)cn3)ccc2[nH]1 [Example 38] | < 100 nM | < 100 nM | < 100 nM |  | −
COC(=O)Nc1nc2cc(Oc3ccc(NC(=O)Nc4ccc(Cl)c(C(F)(F)F)c4)cc3)ccc2[nH]1 [Example 44, Methyl N-(5-(4-((4-chloro-3-(trifluoromethyl)phenyl)aminocarbonylamino)phenoxy)-1H-benzimidazol-2-yl)carbamate] | < 100 nM | < 100 nM | 100 to 1000 nM |  | −
COCCOCCOCC(=O)Nc1nc2ccc(Oc3ccc(NC(=O)Nc4cc(C(F)(F)F)ccc4F)cc3)cc2[nH]1 [Example 33, N-(5-(4-((2-Fluoro-5-(trifluoromethyl)phenyl)aminocarbonylamino)phenoxy)-1H-benzimidazol-2-yl)(2-(2-(methoxy)ethoxy)ethoxy)acetamide] | < 100 nM | < 100 nM | < 100 nM | < 100 nM | 
COC(=O)Nc1nc2cc(Oc3ccc(NC(=O)Nc4cccc(SC)c4)cc3)ccc2[nH]1 [Example 48] | < 100 nM | < 100 nM | < 100 nM |  | −
